Reference: patent US9181234B2, “Antibacterial compounds” (priority 2010, dated 2015)
Converted amounts (≈) assume the structure as drawn. Read-outs that look alike come from different tables or passages of the source.

What was measured:
physchem = conditions: pH 7.4, aqueous buffer, kinetic from dmso stock
In short: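 DMSO doubling dilutions were diluted twenty-fold into 100 mM citrate (pH 4), PBS (pH 7.4) or carbonate-bicarbonate (pH 9). After 24 h equilibration at room temperature, absorbance was read at 620 nm. The reported value is the highest concentration without measurable precipitate.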

[1] = system: Staphylococcus aureus (Isolate ID ATCC 29213); assay: Antibacterial activity, MIC, S. aureus; assay type: cell-based; conditions: Staphylococcus aureus, ATCC29213, Gram positive strain; broth microdilution or agar dilution
In short: (§1)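 CLSI-guided dilution susceptibility testing (broth or agar) gave the MIC for each strain.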

[2] = system: Enterococcus faecalis (Isolate ID ATCC 29212); assay: Antibacterial activity, MIC, E. faecalis; assay type: cell-based; conditions: Enterococcus faecalis, ATCC29212; Gram positive strain; broth microdilution or agar dilution
In short: as §1

[3] = system: Streptococcus pyogenes (Isolate ID ATCC 51339); assay: Antibacterial activity, MIC, S. pyogenes; assay type: cell-based; conditions: Streptococcus pyogenes, ATCC51339, Gram positive strain; broth microdilution or agar dilution
In short: as §1

[4] = system: Haemophilus influenzae (Isolate ID ATCC 49247); assay: Antibacterial activity, MIC, H. influenzae; assay type: cell-based; conditions: Haemophilus influenzae, ATCC49247; Gram negative strain; broth microdilution or agar dilution
In short: as §1

[5] = Pharmacokinetic assay, IV and oral PK profile, rat; assay type: in vivo; conditions: plasma; for bioavailability: [AUCoral/AUCiv]×100%, 3 mg/kg, read-out: F (%) bioavailability
Procedure: Pharmacokinetic Assays: Determination of PK Profile
The pharmacokinetic profiles of compounds were determined by measuring the compound concentration in plasma by LC/MS/MS following a single intravenous or peroral administration of the compounds at a dose of 3 mg/kg. The concentrations described are the mean plasma concentrations at each time point from three animals. Intravenous dose formulation was administered as a single bolus dose through the tail vein. Oral dose formulation was administered to animals by an oral gavage needle. In both cases the dose volume was 5.0 mL/kg. Blood was collected from rats using a jugular vein catheter and from anesthetized mice through a capillary guided into the retro-orbital plexus. The collected blood was centrifuged to obtain plasma and the compounds extracted into methanol prior to determining the compound concentration by LC/MS/MS. The results for selected compounds of the invention are shown in FIGS. 2 to 8 where the X axis denotes time (hours) and the Y axis denotes plasma concentration (ng/mL). The Cmaxoral (μg/mL), AUCiv (μg·hr/mL), AUCoral (μg.hr/mL) and F(%) values are provided in the following table where Cmaxoral is the maximum oral concentration, AUC is area under the curve for intraveneous (IV) and oral and F (%) represents compound bioavailability as calculated by [AUCoral/AUCiv]×100%.

[6] = biological target: T1, Gyrase enzyme (A2B2 complex from Staphylococcus aureus) (UniProt P0A0K8); assay: Gyrase ATPase assay (S. aureus enzyme); assay type: biochemical; conditions: enzyme source (S. aureus or E. coli) not given; 1 mM ATP, 30° C., 60 minutes; read-out: Gyrase ATPase activity (IC50)
T1 construct: 2 mU/μl Gyrase enzyme (A2B2 complex from Staphylococcus aureus); Alternatively
T1 sequence (P0A0K8 whole entry, one chain of several): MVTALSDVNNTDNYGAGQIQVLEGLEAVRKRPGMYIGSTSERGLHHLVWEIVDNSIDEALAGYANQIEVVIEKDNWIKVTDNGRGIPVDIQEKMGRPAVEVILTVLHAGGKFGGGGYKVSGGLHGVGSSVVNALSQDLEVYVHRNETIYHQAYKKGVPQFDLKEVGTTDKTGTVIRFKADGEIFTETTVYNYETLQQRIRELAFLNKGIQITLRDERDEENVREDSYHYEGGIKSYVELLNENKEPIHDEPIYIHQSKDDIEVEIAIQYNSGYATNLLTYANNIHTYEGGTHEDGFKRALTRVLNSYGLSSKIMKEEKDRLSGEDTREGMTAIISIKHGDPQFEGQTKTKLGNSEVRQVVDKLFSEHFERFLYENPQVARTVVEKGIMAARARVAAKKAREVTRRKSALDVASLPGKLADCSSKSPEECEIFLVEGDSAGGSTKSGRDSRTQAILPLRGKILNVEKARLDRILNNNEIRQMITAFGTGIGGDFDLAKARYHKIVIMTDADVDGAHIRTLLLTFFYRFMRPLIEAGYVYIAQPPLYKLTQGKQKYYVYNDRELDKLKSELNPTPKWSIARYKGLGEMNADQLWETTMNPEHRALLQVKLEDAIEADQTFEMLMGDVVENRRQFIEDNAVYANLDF
Procedure: On-Target Enzyme Assay: Determination of Gyrase ATPase Activity
Gyrase converts ATP into ADP and inorganic phosphate. The released phosphate can be detected by the addition of malachite green solution and measured by monitoring the increase in absorbance at 600 nm. The ATPase assay is carried out in a buffer containing 2 mU/μl Gyrase enzyme (A2B2 complex from Staphylococcus aureus), 0.08 mg/ml double-stranded DNA, 8 mM HEPES.KOH pH 7.6, 100 mM K glutamate, 2 mM Mg acetate, 2 mM DTT, 0.01 mg/ml BSA, and 5% DMSO solution containing the inhibitor. Alternatively, the ATPase assay is carried out in a buffer containing 4.8 μg/mL Gyrase enzyme (A2B2 complex from Escherichia coli), 0.08 μg/mL ssDNA, 35 mM Tris pH 7.5, 24 mM KCl, 2 mM MgCl2, 6.5% Glycerol, 2 mM DTT, 1.8 mM Spermidine, 0.5 mg/mL BSA and 5% DMSO solution containing the inhibitor. The reaction is started by adding ATP to a final concentration of 1 mM and allowed to incubate at 30° C. for 60 minutes. The reaction is stopped by adding […] of malachite green solution (0.034% malachite green, 10 mM ammonium molybdate, 1 M HCl, 3.4% ethanol, 0.01% tween 20). Colour is allowed to develop for 5 minutes and the absorbance at 600 nm is measured spectrophotometrically. The IC50 values are determined from the absorbance readings using no compound and no enzyme controls.

[7] = Solubility Range (maximum solubility)
[8] = po, single peroral dose 3 mg/kg, read-out: AUCoral
[9] = single intravenous dose 3 mg/kg, read-out: AUCiv

SMILES	solubility at 24 h (physchem; Max Solubility) [µg/mL]	solubility at 24 h (physchem; Solubility (pH 7.4)) [µg/mL]	solubility at 24 h (physchem; Solubility Range) [µg/mL]	solubility at 24 h (physchem; [7]) [µg/mL]	MIC [1] [µg/mL]	MIC [2] [µg/mL]	MIC [3] [µg/mL]	MIC [4] [µg/mL]	bioavailability ([5]; po) [%]	AUC [5, 8] [ng·h/mL]	AUC [5, 9] [ng·h/mL]	Cmaxoral ([5]; single peroral dose 3 mg/kg) [ng/mL]	IC50 [6] [nM]
CCNC(=O)Nc1nc2cc(-c3cnc(N4CCC(COC)(C(=O)O)CC4)nc3)cc(-c3ccccn3)c2s1 [Compound 141]	≥ 800	≥ 800	> 800	> 800	≤ 0.25	≤ 0.25	≤ 0.25	1 to 16 (≈ 1.83 to 29.2 µM)	8.9	700	8300	300	
CCNC(=O)Nc1nc2cc(-c3cnc(N4CCC(C(=O)O)(C5CC5)CC4)nc3)cc(-c3ccccn3)c2s1 [Compound 143]	≥ 800	≥ 800	> 800	> 800	≤ 0.25	≤ 0.25	≤ 0.25	1 to 16 (≈ 1.84 to 29.4 µM)	10	4700	46900	700	
CCNC(=O)Nc1nc2c(F)c(-c3cnc(N4CCC(C)(C(=O)O)CC4)nc3)cc(-c3ccccn3)c2s1 [Compound 161, 1-[5-[2-(ethylcarbamoylamino)-4-fluoro-7-(2-pyridyl)-1,3-benzothiazol-5-yl]pyrimidin-2-yl]-4-methyl-piperidine-4-carboxylic acid]	≥ 800	≥ 800	> 800	> 800	≤ 0.25	≤ 0.25	≤ 0.25	0.25 to 1 (≈ 0.467 to 1.87 µM)	87	4200	4800	700	
CCNC(=O)Nc1nc2cc(-c3ccc(C4=NOC(C)(C(=O)O)C4)nc3)cc(-c3ccccn3)c2s1 (stereo not drawn) [Compound 183]		100 (≈ 199 µM)	12.5 to 400 (≈ 24.9 to 796 µM)		1 to 16 (≈ 1.99 to 31.8 µM)	0.25 to 1 (≈ 0.497 to 1.99 µM)	≤ 0.25	1 to 16 (≈ 1.99 to 31.8 µM)					
CCNC(=O)Nc1nc2cc(-c3ccc(C4=NOC(C)(C(=O)OCC)C4)nc3)cc(-c3ccccn3)c2s1 (stereo not drawn) [Compound 184]		6.25 (≈ 11.8 µM)	< 12.5		≤ 0.25	≤ 0.25	≤ 0.25	1 to 16 (≈ 1.88 to 30.2 µM)					
CCNC(=O)Nc1nc2cc(-c3cnc(N4CCC(C(N)=O)(c5ccccc5)CC4)nc3)cc(-c3ccccn3)c2s1 [Compound 185]		6.25 (≈ 10.8 µM)	< 12.5		0.25 to 1 (≈ 0.432 to 1.73 µM)	≤ 0.25	1 to 16 (≈ 1.73 to 27.6 µM)	> 16					
CCNC(=O)Nc1nc2cc(-c3cnc(N4CCC(CC)(C(=O)OCC)CC4)nc3)cc(-c3cnc(N4CCC(CC)(C(=O)OCC)CC4)nc3)c2o1 [Compound 234, Diethyl 1,1′-({2-[(ethylcarbamoyl)amino]-1,3-benzoxazole-5,7-diyl}dipyrimidine-5,2-diyl)bis(4-ethylpiperidine-4-carboxylate)]					> 16		> 16						> 1370
